Assay results taken from patent US5473103A, “Biopolymers derived from hydrolyzable diacid fats” (Yissum Research Development Co. of the Hebrew University of …, priority 1993, dated 1995).
Counter-ions that a name gives are not always drawn.

System: esterase from porcine liver
Experiment: in vitro enzymatic degradation by esterase
Format: in vitro ADME
Details: 200 mg monomer, 50 units esterase, 24 hours, 37° C., 1H NMR
Description: The enzymatic degradation of these new monomers were compared to those of the oligomerized fatty acids. The monomers RAM, HSAM, HSAS, FAD, and FAT (200 mg) were mixed in a solution containing esterase (2 ml, containing 50 units of esterase from porcine liver, Sigma Chemical Company, St. Louis, Missouri) and were incubated for 24 hours at 37° C. The monomers or their degradation products were extracted with chloroform and analyzed by ^1 H NMR. […] The RAM, and HSAS monomers contained about 10% ricinoleic acid or 12-hydroxy stearic acid, respectively.

| Compound | ricinoleic acid or 12-hydroxy stearic acid formed |
| --- | --- |
| CCCCCCC(CCCCCCCCCCC(=O)O)OC(=O)CCC(=O)O (centres unmarked) [HSAS, 12-hydroxy stearic acid succinate] | about 10% |
| CCCCCC[C@H](C/C=C\CCCCCCCC(=O)O)OC(=O)/C=C\C(=O)O [RAM, ricinoleic acid maleate] | about 10% |
